Results reported in US10028992B2, “Methods of treating muscular dystrophy” (BOARD OF REGENTS OF THE NEVADA SYSTEM OF HIGHER EDUCATION …, priority 2012, dated 2018).

System: α7 integrin promoter
Assay: muscle cell-based assay: α7βgal+/− myoblasts/myotubes, LacZ reporter, β-galactosidase cleavage of FDG
Parameters: species or system mouse; Results in α7+/− β-galactosidase assay: scale not given here
Conditions: Myoblasts
In short: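 Primary α7βgal+/− mouse myoblasts (LacZ knocked into α7 integrin exon 1, promoter retained), differentiated; promoter activity read as β-galactosidase conversion of non-fluorescent FDG to fluorescein. Hits followed by dose-response, western analysis and myostatin counterscreen.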

Compound | Results in α7+/− β-galactosidase assay (0.5 uM) | Results in α7+/− β-galactosidase assay (1 uM) | Results in α7+/− β-galactosidase assay (5 uM) | Results in α7+/− β-galactosidase assay (10 uM) | Results in α7+/− β-galactosidase assay (20 uM) | Results in α7+/− β-galactosidase assay (40 uM)
Cc1ccccc1-n1c(S)nnc1Cc1cccs1 [drawing 520] | 0.09422 | 0.03188 | 0.1364 | 0.3732 | 0.1056 | 0.01115
CCCCN(CC)Cc1ccc(C/N=C(\S)Nc2ccccc2F)o1 [drawing 521] | 0.07412 | 0.014 | 0.01263 | 0.224 | −0.04634 | −0.1183
COc1ccc2c(c1)C(=C(C#N)C#N)C(=O)N2CCc1ccccc1 [drawing 522] | 0.199 | 0.06668 | −0.157 | 0.1343 | −0.3414 | −0.3915
Cn1cc(CN(CCO)Cc2cccs2)c(-c2ccccc2F)n1 [drawing 523] | 0.1756 | 0.1912 | −0.02798 | 0.2648 | 0.0346 | −0.1208
CCN1C(=O)/C(=C(/C#N)c2nc3ccccc3[nH]2)c2ccccc21 [drawing 524] | −0.1641 | −0.1562 | −0.1933 | −0.1296 | −0.2594 | −0.241
Cc1ccc2c(c1)/C(=C/c1ccc(F)cc1)C(=O)N2 [drawing 525] | 0.006732 | −0.03019 | −0.1238 | −0.2542 | −0.5127 | −0.7544
O=C1Nc2ccccc2/C1=C\c1ccnc2ccccc12 [drawing 526] | 0.2132 | 0.0742 | 0.06287 | 0.1705 | −0.2337 | −0.1575
CCc1c(C)sc(NC(=O)c2ccco2)c1C#N [drawing 527] | 0.01962 | 0.03303 | −0.06162 | −0.02233 | −0.1898 | −0.1237
CCc1c(C)sc(NC(=O)c2ccco2)c1C#N [drawing 528] | 0.08233 | 0.08072 | 0.4585 | 0.07353 | 0.153 | 0.1981
O=C1Nc2ccccc2/C1=C/c1ccccc1Cl [drawing 529] | 0.2214 | 0.2193 | −0.03271 | −0.1355 | −0.2535 | −0.6555
COc1cccc(CN2CCN(Cc3ccco3)CC2)c1.O=C(O)C(=O)O [drawing 530] | 0.2392 | 0.1359 | 0.06492 | −0.03174 | 0.218 | 0.2155
CC(C)Oc1ccc(C(=O)/C=C2\C(=O)Nc3ccccc32)cc1 [drawing 531] | 0.3276 | 0.2225 | −0.3766 | −0.6765 | −0.7978 | −0.9731
COc1ccc(NC(=O)C2(N(C(=O)Cn3nnnc3N)c3ccc(OC)cc3)CCCCC2)cc1 [drawing 532] | 0.2391 | 0.1433 | 0.4897 | −0.1284 | −0.274 | −0.3931
COc1ccc(CCNC(=O)Cn2nnc(C(=O)Nc3ccc(Br)cc3)c2N)cc1OC [drawing 533] | 0.1152 | 0.03848 | −0.06784 | −0.0702 | −0.3276 | −0.5608
CC1(C)Cc2c(cnn2-c2cccc(F)c2)C(NC(=O)CCc2cnccn2)C1 (stereo not drawn) [drawing 534] | 0.2096 | 0.1101 | −0.01619 | −0.03841 | 0.02411 | −0.09429
O=C1Nc2ccccc2/C1=C/c1cccnc1 [drawing 535] | 0.259 | 0.1621 | −0.1077 | −0.235 | −0.5331 | −0.7528
CNC(=O)CSc1nnc(-c2ccc3c(c2)OCO3)n1C [drawing 536] | 0.1583 | 0.04195 | 0.03203 | 0.03846 | −0.04001 | −0.01341
Cc1ccccc1NC(=O)NCCCN1CCN(C)CC1 [drawing 537] | 0.06224 | 0.06912 | 0.01544 | −0.04766 | 0.09447 | 0.1887
CC1(C)Cc2c(c(N3CCOCC3)nc3sc(C(=O)Nc4ccccc4)c(N)c23)CO1 [drawing 538] | 0.2085 | 0.2916 | −0.3961 | −0.7131 | −0.4322 | −0.3536
COc1ccc(N2CCN(C(=O)c3cc(C)on3)CC2)cc1 [drawing 539] | 0.06118 | 0.157 | 0.07966 | 0.01243 | 0.1011 | 0.07367
CCOn1c(=O)c(-c2ccccc2)[n+]([O-])c2ccccc21 [drawing 540] | 0.2811 | 0.2862 | 0.8432 | −0.07816 | 0.1113 | 0.0836
O=S(=O)(N/C(=N/C1CCCCC1)c1ccccc1F)c1ccccc1 [drawing 542] | 0.02381 | 0.1877 | 0.03277 | 0.0429 | 0.04651 | 0.01846
CCCCNc1nnc(Cc2ccc(Cl)cc2)c(O)n1 [drawing 543] | 0.1426 | 0.2067 | −0.06804 | −0.2224 | −0.259 | −0.2813
